Laboratory results published in patent US20100234323A1, “Antimicrobial Acids and Salts” (priority 2006, published 2010).
Where “and” joins values, the source holds several entries; their conditions need not be identical. Equal values may be shown once.

Legend:
[1] = system: Escherichia coli (ATCC 10535); experiment: Microbicidal activity, European Standard EN1040 suspension test; assay type: cell-based; settings: for E. coli cfu/mL (residual cell count): room temperature
Protocol: (§1) Microbicidal activity of different anionic siloxanes with carboxyl groups is tested according to European Standard EN1040. A bacterial suspension with a cell count of about 10^7 cfu/ml (cfu stands for colony-forming units) is contacted with appropriate concentrations of the specific substances and the residual cell count is determined after incubation times of 5 and 30 min. at room temperature under continuos stirring. Staphylococcus aureus (ATCC 5638, American Type Culture Collection, Manassas, USA) is tested as gram+ (gram positive) and Escherichia coli (ATCC 10535, American Type Culture Collection) as gram-organism. The results are given as a log reduction at each incubation time in comparison to a water control in the following tables (a) and (b): […]

[2] = system: Staphylococcus aureus (ATCC 5638); experiment: as above; assay type: cell-based; settings: for S. aureus cfu/mL (residual cell count): room temperature
Protocol: as §1

[3] = system: Staphylococcus aureus cells; experiment: Antiadhesive efficacy on coated PMMA test specimen, antibody colorimetric assay; assay type: cell-based; settings: specimen coated from 0.50% solution in EtOH; S. aureus suspension 1 hour at 30°
Protocol: The antiadhesive efficacy (inhibition of adhesion of microorganisms) is tested after temporarily attaching various compounds to PMMA test specimen by incubation of the test specimen in a 0.5% solution in ethanol. The coated specimen are then dried and afterwards incubated in a suspension of Staphylococcus aureus cells for 1 hour at 30° under shaking. After some washing steps, the attached cells are detected via binding of a primary antibody and—after incubation of night and again washing steps—binding of a secondary antibody with alkaline phosphatase attached. The adhesion is then determined in a colorimetric assay in comparison to an untreated PMMA test specimen, which is calculated as showing 100% adhesion.

[4] = system: S. aureus ATCC 6538; experiment: Antibacterial efficacy on treated polypropylene non-woven, modified AATCC-100; assay type: cell-based, Staphylococcus aureus
Protocol: (§2) A solution of Example 1 in a solvent (tetrahydrofurane and/or acetone) is prepared with a concentration of 1 or 2% of the compound of Example 1. This solution is sonicated for 1 min to ensure complete dissolution of the test acid compound. Then polypropylene non-woven (10×10 cm) is dipped into the solution (100 ml) and left under sonication for 1 min. The non-woven is taken out of the solution and dried on air at room temperature for some hours. This non-woven is then used for microbial testing as follows:
(§3) The efficacy of Example 1 is tested after application onto polypropylene non-woven material according to a modified AATCC-100 standard for assessing antibacterial activity on textiles. Overnight cultures of two test bacteria are contacted with the treated non-woven material by pipetting a diluted suspension onto the surface of the material. The non-woven is then incubated for 24 hours at 37° C., and then the cell count is determined by elution of the materials into a neutralizing medium, dilution series and plate count technique. As in the basic test for microbicidal activity (Example 6), Staphylococcus aureus is used as the gram+ and Escherichia coli as the gram-organism.
(§4) The results are given in tables (f) and (g) as cell count directly after inoculation and after 24 hours incubation time in comparison to an untreated polypropylene non-woven as the blank.

[5] = system: Aureobasidium pullulans (DSM 2404); experiment: Fungicidal activity, European Standard EN12175 spore suspension test; assay type: cell-based; settings: test conc. 1%; for log reduction A. pull.: vs water control
Protocol: (§5) Fungicidal activity is tested according to European Standard EN12175. A fungal spore suspension with a spore cell count of about 10^6 cfu/ml is contacted with appropriate concentrations of the specific substances (Examples) mentioned in the tables below and the residual spore cell count is determined after incubation times of 30 and 60 min at room temperature under continuous stirring. Penicillium funiculosum (DSM 1960), Aspergillus niger (DSM 1957/ATCC 6275) and Aureobasidium pullulans (DSM 2404) are tested as important mold strains. DSM refers to microorganisms obtainable under the numbers given at the DSMZ (Deutsche Sammlung von Mikroorganismen and Zellkulturen GmbH, Braunschweig, Germany). ATCC numbers refer to organisms obtainable from the American Type Culture Collection (see Example 6). The results are given as a log reduction at each incubation time in comparison to a water control in table (d): […]

[6] = system: Penicillium funiculosum (DSM 1960); experiment: as above; assay type: cell-based; settings: test conc. 1%; for log reduction P. funic.: vs water control
Protocol: as §5

[7] = system: Aspergillus niger (DSM 1957/ATCC 6275); experiment: as above; assay type: cell-based; settings: test conc. 1%; for log reduction A. niger: vs water control
Protocol: as §5

[8] = system: E. coli ATCC 10536; experiment: Antibacterial efficacy on treated polypropylene non-woven, modified AATCC-100; assay type: cell-based, Escherichia coli
Protocol: as §2, §3, §4

[9] = 1% in EtOH (ethanolic stock solution), 5 min
[10] = 1% in EtOH (ethanolic stock solution), 30 min
[11] = 1% in H2O (stock solution in water), 5 min
[12] = 1% in H2O (stock solution in water), 30 min
[13] = test concentration 1%, 5 min, vs water control
[14] = test concentration 1%, 30 min, vs water control
[15] = test concentration 1000 ppm, 5 min
[16] = test concentration 1000 ppm, 30 min

SMILES: C[Si]1(CCCC(CC(=O)O)C(=O)O)O[Si](C)(CCCC(CC(=O)O)C(=O)O)O[Si](C)(CCCC(CC(=O)O)C(=O)O)O[Si](C)(CCCC(CC(=O)O)C(=O)O)O1 (centres unmarked) [Example 1]
- E. coli cfu/mL [1, 9]: 1.37E+06 cfu/mL
- log reduction E. coli [1, 9]: 1.2
- E. coli cfu/mL [1, 10]: 0.00E+00 cfu/mL
- log reduction E. coli [1, 10]: >5
- E. coli cfu/mL [1, 11]: 4.62E+06 cfu/mL and 5.03E+06 cfu/mL
- log reduction E. coli [1, 11]: <1
- E. coli cfu/mL [1, 12]: 1.97E+06 cfu/mL and 2.09E+06 cfu/mL
- log reduction E. coli [1, 12]: 1.1
- E. coli cfu/mL (residual cell count) ([1]; test concentration 1%, 5 min): 0.00E+00 cfu/mL
- log reduction E. coli [1, 13]: >5
- E. coli cfu/mL (residual cell count) ([1]; test concentration 1%, 30 min): 0.00E+00 cfu/mL
- log reduction E. coli [1, 14]: >5
- S. aureus cfu/mL [2, 9]: 3.45E+06 cfu/mL
- log reduction S. aureus [2, 9]: 1
- S. aureus cfu/mL [2, 10]: 1.10E+04 cfu/mL
- log reduction S. aureus [2, 10]: 3.3
- S. aureus cfu/mL [2, 11]: 6.98E+06 cfu/mL and 8.19E+06 cfu/mL
- log reduction S. aureus [2, 11]: <1
- S. aureus cfu/mL [2, 12]: 9.55E+05 cfu/mL and 1.12E+06 cfu/mL
- log reduction S. aureus [2, 12]: 1.3
- S. aureus cfu/mL (residual cell count) ([2]; test concentration 1%, 5 min): 1.20E+04 cfu/mL
- log reduction S. aureus [2, 13]: 3.1
- S. aureus cfu/mL (residual cell count) ([2]; test concentration 1%, 30 min): 0.00E+00 cfu/mL
- log reduction S. aureus [2, 14]: >5
- results on PMMA (adhesion; untreated PMMA = 100% adhesion) [3]: 85%
- activity against S. aureus (in words) ([4]; applied at 2%): full activity
- activity against S. aureus (in words) ([4]; non-woven treated with 1%): some but inconsistent activity
- S. aureus cell count, 24 hours ([4]; polypropylene nonwoven treated with 2% solution, 24 hours at 37° C.): <100 cfu/sample
- A. pull. cfu/mL (residual spore cell count) ([5]; 30 min): 2.1E+05 cfu/mL
- log reduction A. pull. ([5]; 30 min): <1
- A. pull. cfu/mL (residual spore cell count) ([5]; 1 h): 2.2E+05 cfu/mL
- log reduction A. pull. ([5]; 1 h): <1
- P. funic. cfu/mL (residual spore cell count) ([6]; 30 min): 4.0E+06 cfu/mL
- log reduction P. funic. ([6]; 30 min): <1
- P. funic. cfu/mL (residual spore cell count) ([6]; 1 h): 3.8E+06 cfu/mL
- log reduction P. funic. ([6]; 1 h): <1
- A. niger cfu/mL (residual spore cell count) ([7]; 30 min): 1.1E+06 cfu/mL
- log reduction A. niger ([7]; 30 min): <1
- A. niger cfu/mL (residual spore cell count) ([7]; 1 h): 1.2E+06 cfu/mL
- log reduction A. niger ([7]; 1 h): <1
- activity against E. coli (in words) ([8]; applied at 2%): high activity
- activity against E. coli (in words) ([8]; non-woven treated with 1%): no activity

SMILES: C[Si]1(CCCP(=O)(O)O)O[Si](C)(CCCP(=O)(O)O)O[Si](C)(CCCP(=O)(O)O)O[Si](C)(CCCP(=O)(O)O)O1 (centres unmarked) [Example 2]
- E. coli cfu/mL [1, 15]: 1.50E+04 cfu/mL
- log reduction E. coli [1, 15]: 3.2
- E. coli cfu/mL [1, 16]: 0.00E+00 cfu/mL
- log reduction E. coli [1, 16]: >5
- S. aureus cfu/mL [2, 15]: 1.42E+03 cfu/mL
- log reduction S. aureus [2, 15]: 4.3
- S. aureus cfu/mL [2, 16]: 0.00E+00 cfu/mL
- log reduction S. aureus [2, 16]: >5

SMILES: C[Si](C)(C)O[Si](C)(C)O[Si](C)(CCCC(CC(=O)O)C(=O)O)O[Si](C)(C)C (centres unmarked) [Example 4]
- E. coli cfu/mL (residual cell count) ([1]; test concentration 1%, 5 min): 1.03E+05 cfu/mL
- log reduction E. coli [1, 13]: 2.3
- E. coli cfu/mL (residual cell count) ([1]; test concentration 1%, 30 min): 0.00E+00 cfu/mL
- log reduction E. coli [1, 14]: >5
- S. aureus cfu/mL (residual cell count) ([2]; test concentration 1%, 5 min): 3.22E+06 cfu/mL
- log reduction S. aureus [2, 13]: <1
- S. aureus cfu/mL (residual cell count) ([2]; test concentration 1%, 30 min): 1.67E+04 cfu/mL
- log reduction S. aureus [2, 14]: 2.9
- results on PMMA (adhesion; untreated PMMA = 100% adhesion) [3]: 46%
- A. pull. cfu/mL (residual spore cell count) ([5]; 30 min): 1.3E+05 cfu/mL
- log reduction A. pull. ([5]; 30 min): <1
- A. pull. cfu/mL (residual spore cell count) ([5]; 1 h): 9.0E+04 cfu/mL
- log reduction A. pull. ([5]; 1 h): <1
- P. funic. cfu/mL (residual spore cell count) ([6]; 30 min): 4.8E+05 cfu/mL
- log reduction P. funic. ([6]; 30 min): 1.0
- P. funic. cfu/mL (residual spore cell count) ([6]; 1 h): 1.14E+05 cfu/mL
- log reduction P. funic. ([6]; 1 h): 1.6
- A. niger cfu/mL (residual spore cell count) ([7]; 30 min): 1.5E+04 cfu/mL
- log reduction A. niger ([7]; 30 min): 2.0
- A. niger cfu/mL (residual spore cell count) ([7]; 1 h): 1.3E+04 cfu/mL
- log reduction A. niger ([7]; 1 h): 2.1

SMILES: C[Si](C)(CCCC(CC(=O)O)C(=O)O)O[Si](C)(C)O[Si](C)(C)O[Si](C)(C)O[Si](C)(C)O[Si](C)(C)O[Si](C)(C)O[Si](C)(C)O[Si](C)(C)O[Si](C)(C)O[Si](C)(C)O[Si](C)(C)CCCC(CC(=O)O)C(=O)O (centres unmarked) [Example 5]
- E. coli cfu/mL (residual cell count) ([1]; test concentration 1%, 5 min): 1.54E+07 cfu/mL
- log reduction E. coli [1, 13]: <1
- E. coli cfu/mL (residual cell count) ([1]; test concentration 1%, 30 min): 3.58E+06 cfu/mL
- log reduction E. coli [1, 14]: <1
- S. aureus cfu/mL (residual cell count) ([2]; test concentration 1%, 5 min): 1.34E+07 cfu/mL
- log reduction S. aureus [2, 13]: <1
- S. aureus cfu/mL (residual cell count) ([2]; test concentration 1%, 30 min): 7.86E+06 cfu/mL
- log reduction S. aureus [2, 14]: <1
- results on PMMA (adhesion; untreated PMMA = 100% adhesion) [3]: 50%
- A. pull. cfu/mL (residual spore cell count) ([5]; 30 min): 3.5E+05 cfu/mL
- log reduction A. pull. ([5]; 30 min): <1
- A. pull. cfu/mL (residual spore cell count) ([5]; 1 h): 3.4E+05 cfu/mL
- log reduction A. pull. ([5]; 1 h): <1
- P. funic. cfu/mL (residual spore cell count) ([6]; 30 min): 2.5E+06 cfu/mL
- log reduction P. funic. ([6]; 30 min): <1
- P. funic. cfu/mL (residual spore cell count) ([6]; 1 h): 2.7E+06 cfu/mL
- log reduction P. funic. ([6]; 1 h): <1
- A. niger cfu/mL (residual spore cell count) ([7]; 30 min): 7.0E+05 cfu/mL
- log reduction A. niger ([7]; 30 min): <1
- A. niger cfu/mL (residual spore cell count) ([7]; 1 h): 6.0E+05 cfu/mL
- log reduction A. niger ([7]; 1 h): <1
